Data from US6939707B2, “Isolated nucleic acid molecules which encode GAGE genes and uses thereof” (Ludwig Institute for Cancer Research, priority 1993, dated 2005).
Ends that are not written are not given here.

Legend:
Type in all cases: cell-based, human
CTL 76/6 [1] = test: TNF release by CTL 76/6 on peptide-pulsed COS-7 cells transfected with HLA-Cw6 cDNA; details: peptide 20 ug/ml, 90 minutes at 37° C., 3000 CTLs, TNF in supernatant after eighteen hours tested on WEHI-164-13 cells
Experimental: Each peptide was pulsed into COS-7 cells previously transfected with HLA-Cw6 cDNA, and combined with CTL 76/6 to determine if TNF release would be induced. Peptides (20 ug/ml) were added to COS-7 cells which had been transfected with the HLA-Cw6 cDNA twenty-four hours previously After incubation at 37° C. for 90 minutes, medium was discarded, and 3000 CTLs were added in 100 microliters of medium, containing 25 units/ml of IL-2. Eighteen hours later, TNF content of supernatant was tested via determining toxicity on WEHI-164-13 cells. […] The second peptide was used for further experiments.

LB33-EBV cells = test: 51Cr release lysis of peptide-incubated LB33-EBV cells (HLA-Cw6 positive) by CTL 76/6; details: CTL 76/6, effector:target ratio 10:1, four hours at 37° C., varying peptide concentration (FIG. 3)
Experimental: The lysis assay employed was a chromium release assay following Herin et at., Int. J. Cancer 39;390-396 (1987), the disclosure of which is incorporated by reference. The assay, however, is described herein. The target melanoma cells were grown in vitro, and then resuspended at 10^7 cells/ml in DMEM, supplemented with 10 mM Hepes and 30% FCS, and incubated for 45 minutes at 37° C. with 200 μCi/ml of Na(^51Cr)O4. Labeled cells were washed three times with DMEM supplemented with 10 mM Hepes. These were then resuspended in DMEM supplemented with 10 mM Hepes and 10% FCS, after which 100 ul aliquots containing 10^3 cells, were distributed into 96 well microplates. Samples of PBLs were added in 100 ul of the same medium, and assays were earned out in duplicate. Plates were centrifuged for 4 minutes at 100 g, and incubated for four hours at 37° C. in an 8% CO2 atmosphere.
Plates were centrifuged again, and 100 ul aliquots of supernatant were collected and counted. Percentage of ^51Cr release was calculated as follows: [formula] where ER is observed, experimental ^51Cr release, SR is spontaneous release measured by incubating 10^3 labeled cells in 200 ul of medium alone, and MR is maximum release, obtained by adding 100 ul 0.3% Triton X-100 to target cells.
Various peptides based upon SEQ ID NO: 13 were synthesized, and tested, some of which are presented below. To carry out these tests ^51Cr labelled LB33-EBV cells, which are HLA-Cw6 positive, were incubated with one of the following peptides:
Levels of lysis for positive (“F^+”, MZ2-MEL.3.1), and negative (“F”; MZ2-MEL.2.2.5) control cells are indicated, in FIG. 3.

HLA-A29 = test: 51Cr release lytic assay with GAGE-3 to 6 derived peptides (HLA-A29); details: FIG. 8; successive deletions of SEQ ID NO: 21
Experimental: The lysis assay employed was a chromium release assay following Herin et at., Int. […] The target melanoma cells were grown in vitro, and then resuspended at 10^7 cells/ml in DMEM, supplemented with 10 mM Hepes and 30% FCS, and incubated for 45 minutes at 37° C. with 200 μCi/ml of Na(^51Cr)O4. Labeled cells were washed three times with DMEM supplemented with 10 mM Hepes. These were then resuspended in DMEM supplemented with 10 mM Hepes and 10% FCS, after which 100 ul aliquots containing 10^3 cells, were distributed into 96 well microplates. Samples of PBLs were added in 100 ul of the same medium, and assays were earned out in duplicate. Plates were centrifuged for 4 minutes at 100 g, and incubated for four hours at 37° C. in an 8% CO2 atmosphere.
The peptide (SEQ ID NO: 21) was tested in a ^51Cr release experiment, following the method described supra.
Successive deletions were prepared, and tested for their ability to provoke lysis, again using the ^51Cr lytic assay.

HLA-Cw6 positive cells = test: Lysis of peptide-pulsed HLA-Cw6 positive cells by CTL 82/31; details: HLA-Cw6 positive cells pulsed with peptide; results not reported in detail
Experimental: In results not reported here, a second CTL was tested (CTL 82/31).

CTL 22/23 = test: TNF production by CTL 22/23 on COS-7 cells cotransfected with HLA-A29 and GAGE cDNA; details: COS-7 cells transfected with HLA-A29 and the cDNA, 24 hours (FIG. 7)
Experimental: (§1) Following this change in medium, COS cells were incubated for 24-48 hours at 37° C. Medium was then discarded, and 1000-3000 cells of CTL clone 76/6 were added, in 100 μl of Iscove's medium containing 10% pooled human serum supplemented with 20-30 U/ml of recombinant IL-2. Supernatant was removed after 24 hours, and TNF content was determined in an assay on WEHI cells, as described by Traversari et al., Immunogenetics 35: 145-152 (1992), the disclosure of which is incorporated by reference.
Once positive HLA-A29 clones were isolated, these were transfected into COS-7 using the DEAE-dextran chloroquine method out supra. In brief, 1.5×10^4 COS-7 cells were treated with 50 ng of plasmid pcDNA-I/Amp containing HLA-A29, and 100 ng of cDNA containing cDNA for one of the GAGE sequences mentioned supra, or one of the prior art MAGE or BAGE sequences in plasmid pcDNAα-I/Amp or pcDSR-α, respectively. The transfectants were then incubated for 24 hours at 37° C.
The transfectants were then tested for their ability to stimulate TNF production by CTLs, using the assay explained at the end of example, 4, supra.

CTL 76/6 [2] = test: TNF release / recognition by CTL 76/6 of COS cells cotransfected with GAGE cDNA and HLA-Cw6 cDNA; details: COS cells transfected with cDNA together with HLA-Cw6 cDNA (FIG. 2, FIG. 6)
Experimental: Following preparation of the library described in Example 3, the cDNA was transfected into eukaryotic cells. The transfections, described herein, were carried out in duplicate. Samples of COS-7 cells were seeded, at 15,000 cells/well into tissue culture flat bottom microwells, in Dulbecco's modified Eagles Medium (“DMEM”) supplemented with 10% fetal calf serum. The cells were incubated overnight at 37° C., medium was removed and then replaced by 50 μl/well of DMEM medium containing 10% Nu serum, 400 μg/ml DEAE-dextran, and 100 μM chloroquine, plus 100 ng of the plasmids. […] As a result, cDNA for each of the HLA molecules which could present the antigen (A1, B37, Cw6) was used, separately, to cotransfect the cells. Specifically, one of 28 ng of the gene encoding HLA-A1 cloned into pCD-SRα, 50 ng of cDNA for HLA-B37 in pcDNA 1/Amp, or 75 ng of cDNA for HLA-Cw6 in pcDNAI-Amp, using the same protocols as were used for transfeclion with the library.
Transfection was carried out in duplicate wells, but only 500 pools of the HLA-Cw6 transfectants could be tested in single wells. Following four hours of incubation at 37° C., the medium was removed, and replaced by 50 μl of PBS containing 10% DMSO. This medium was removed after two minutes and replaced by 200 μl of DMEM supplemented with 10% FCS.
as §1
The bacteria of the selected pool were cloned, and 600 clones were tested. Plasmid DNA was extracted therefrom, transfected into a new sample of COS cells in the same manner as described supra, and the cells were again tested for stimulation of CTL clone 76/6. Ninety-four positive clones were found. One of these, referred to as cDNA clone 2D6, was tested further. In a comparative test COS cells were transfected with cDNA clone 2D6 and the HLA-Cw6 cDNA, HLA-Cw6 cDNA alone, or cDNA 2D6 alone. Control cell lines MZ2-MEL F and MZ2-MEL F^+ were also used. TNF release into CTL supernatant was measured by testing it on WEHI cells, as referred to supra. The number of surviving WEHI cells was measured by optical density after incubation of the cells with MTT.
To assess whether the change at position 2 affected the antigenicity of the peptide, cDNA of the 6 GAGE cDNAs were individually transfected into COS cells together with the cDNA of HLA-Cw6, and the transfectants were tested for recognition by CTL 76/6 as described, supra. Only GAGE-1 and GAGE-2 transfected cells were recognized, showing that the modified peptide encoded by GAGE-3, 4, 5 and 6 was not antigenic in the context of this experiment.

Molecule | CTL lysis (51Cr release) (LB33-EBV cells) | stimulation of TNF production by CTL clone 22/23 (CTL 22/23) | recognition by CTL 76/6 (TNF release) (CTL 76/6 [2]) | other results
TYRPRPRRYVEPPEMI [SEQ ID NO: 13] |  |  |  | TNF induced (CTL 76/6 [1]): more than 30 pg/ml
TYRPRPRRY [SEQ ID NO: 5] | induced CTL lysis albeit to a lesser extent |  |  | 
TRPRPRRYV [SEQ ID NO: 6] | induced CTL lysis albeit to a lesser extent |  |  | 
RSTYYWPRPRRYVQ [SEQ ID NO: 21] |  |  |  | ability to provoke lysis (51Cr release) (HLA-A29): did provoke lysis
MSWRGRSTYRPRPRR [SEQ ID NO: 12] |  |  |  | TNF induced (CTL 76/6 [1]): less than 10 pg/ml
Tyr Tyr Trp Pro Arg Pro Arg Arg Tyr [SEQ ID NO: 22] |  |  |  | ability to provoke lysis (51Cr release) (HLA-A29): shortest peptide to provoke lysis
YRPRPRRY [SEQ ID NO: 4, octamer tumor rejection antigen presented by HLA-Cw6] | the best peptide |  |  | lysis by second CTL (CTL 82/31) (HLA-Cw6 positive cells): lysed HLA-Cw6 positive cells
GAGE-6: cDNA highly related to GAGE, from MZ2-MEL.43 library (nucleic acid) DNA: GCCAGGGAGCTGTGAGGCAGTGCTGTGTGGTTCCTGCCGTCCGGACTCTTTTTCCTCTACTGAGATTCATCTGTGTGAAATATGAGTTGGCGAGGAAGATCGACCTATTATTGGCCTAGACCAAGGCGCTATGTACAGCCTCCTGAAGTGATTGGGCCTATGCGGCCCGAGCAGTTCAGTGATGAAGTGGAACCAGCAACACCTGAAGAAGGGGAACCAGCAACTCAACGTCAGGATCCTGCAGCTGCTCAGGAGGGAGAGGATGAGGGAGCATCTGCAGGTCAAGGGCCGAAGCCTGAAGCTGATAGCCAGGAACAGGGTCACCCACAGACTGGGTGTGAGTGTGAAGATGGTCCTGATGGGCAGGAGGTGGACCCGCCAAATCCAGAGGAGGTGAAAACGCCTGAAGAAGGTGAAAAGCAATCACAGTGTTAAAAGAAGACACGTTGAAATGATGCAGGCTGCTCCTATGTTGGAAATTTGTTCATTAAAATTCTCCCAATAAAGCTTTACAGCCTTCTGCAAAAAAAAAAAAAAAA |  | high levels of TNF production | not antigenic | 
GAGE-2: cDNA highly related to GAGE, from MZ2-MEL.43 library (nucleic acid) DNA: ACGCCAGGGAGCTGTGAGGCAGTGCTGTGTGGTTCCTGCCGTCCGGACTCTTTTTCCTCTACTGAGATTCATCTGTGTGAAATATGAGTTGGCGAGGAAGATCGACCTATCGGCCTAGACCAAGACGCTACGTAGAGCCTCCTGAAATGATTGGGCCTATGCGGCCCGAGCAGTTCAGTGATGAAGTGGAACCAGCAACACCTGAAGAAGGGGAACCAGCAACTCAACGTCAGGATCCTGCAGCTGCTCAGGAGGGAGAGGATGAGGGAGCATCTGCAGGTCAAGGGCCGAAGCCTGAAGCTCATAGCCAGGAACAGGGTCACCCACAGACTGGGTGTGAGTGTGAAGATGGTCCTGATGGGCAGGAGATGGACCCGCCAAATCCAGAGGAGGTGAAAACGCCTGAAGAAGGTGAAAAGCAATCACAGTGTTAAAAGAAGACACGTTGAAATGATGCAGGCTGCTCCTATGTTGGAAATTTGTTCATTAAAATTCTCCCAATAAAGCTTTACAGCCTTCTGCAAAGAAAAAAAAAAAA |  | do not stimulate CTL clone 22/23 | recognized | 
GAGE-1: cDNA coding for GAGE tumor rejection antigen precursor, SEQ ID NO: 1 (nucleic acid) DNA: CTGCCGTCCGGACTCTTTTTCCTCTACTGAGATTCATCTGTGTGAAATATGAGTTGGCGAGGAAGATCGACCTATCGGCCTAGACCAAGACGCTACGTAGAGCCTCCTGAAATGATTGGGCCTATGCGGCCCGAGCAGTTCAGTGATGAAGTGGAACCAGCAACACCTGAAGAAGGGGAACCAGCAACTCAACGTCAGGATCCTGCAGCTGCTCAGGAGGGAGAGGATGAGGGAGCATCTGCAGGTCAAGGGCCGAAGCCTGAAGCTGATAGCCAGGAACAGGGTCACCCACAGACTGGGTGTGAGTGTGAAGATGGTCCTGATGGGCAGGAGATGGACCCGCCAAATCCAGAGGAGGTGAAAACGCCTGAAGAAGAGATGAGGTCTCACTATGTTGCCCAGACTGGGATTCTCTGGCTTTTAATGAACAATTGCTTCTTAAATCTTTCCCCACGGAAACCTTGAGTGACTGAAATATCAAATGGCGAGAGACCGTTTAGTTCCTATCATCTGTGGCATGTGAAGGGCAATCACAGTGTTAAAAGAAGACATGCTGAAATGTTGCAGGCTGCTCCTATGTTGGAAAATTCTTCATTGAAGTTCTCCCAATAAAGCTTTACAGCCTTCTGCAAAGAAAAAAAAAAAA |  | do not stimulate CTL clone 22/23 | recognized | recognition by CTL 76/6 (TNF release) (CTL 76/6 [2]; listed as cDNA clone 2D6): stimulated TNF release
